These results are taken from US12091426B2, “Bifunctional degraders of hematopoietic progenitor kinase and therapeutic uses thereof” (Nurix Therapeutics, Inc., priority 2021, dated 2024).

The test addresses T1, HPK1 (Homo sapiens, UniProt Q92918).
T1 construct: A HiBiT tag was introduced by CRISPR on the N terminus of HPK1 in Jurkat cells; host or cells: Jurkat cells (ATCC TIB-152), monoclonal line with CRISPR knock-in of HiBiT at the endogenous HPK1 locus
Description: HPK1 Cellular HiBit Degradation Assay. As to conditions: HiBiT HPK1 Jurkat cells, 24 hrs; for DC50: concentration at which 50% of HPK1 was remaining, read-out: DC50 Category; for Dmax: Jurkat, maximum degradation vs DMSO vehicle control, read-out: Dmax Category. Type of test: cell-based. A digest of the protocol: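 HPK1 levels are read by HiBiT luminescence after 24 h exposure of HiBiT-knock-in Jurkat cells to compound at 10 uM–0.1 nM final (11 points). Relative to DMSO (100%), DC50 is the concentration leaving 50% HPK1 from a variable-slope fit, and Dmax is 100 minus minimum remaining. Viability checked in-plate.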

The structures appear in SMILES notation.

T1 sequence (Q92918 whole entry): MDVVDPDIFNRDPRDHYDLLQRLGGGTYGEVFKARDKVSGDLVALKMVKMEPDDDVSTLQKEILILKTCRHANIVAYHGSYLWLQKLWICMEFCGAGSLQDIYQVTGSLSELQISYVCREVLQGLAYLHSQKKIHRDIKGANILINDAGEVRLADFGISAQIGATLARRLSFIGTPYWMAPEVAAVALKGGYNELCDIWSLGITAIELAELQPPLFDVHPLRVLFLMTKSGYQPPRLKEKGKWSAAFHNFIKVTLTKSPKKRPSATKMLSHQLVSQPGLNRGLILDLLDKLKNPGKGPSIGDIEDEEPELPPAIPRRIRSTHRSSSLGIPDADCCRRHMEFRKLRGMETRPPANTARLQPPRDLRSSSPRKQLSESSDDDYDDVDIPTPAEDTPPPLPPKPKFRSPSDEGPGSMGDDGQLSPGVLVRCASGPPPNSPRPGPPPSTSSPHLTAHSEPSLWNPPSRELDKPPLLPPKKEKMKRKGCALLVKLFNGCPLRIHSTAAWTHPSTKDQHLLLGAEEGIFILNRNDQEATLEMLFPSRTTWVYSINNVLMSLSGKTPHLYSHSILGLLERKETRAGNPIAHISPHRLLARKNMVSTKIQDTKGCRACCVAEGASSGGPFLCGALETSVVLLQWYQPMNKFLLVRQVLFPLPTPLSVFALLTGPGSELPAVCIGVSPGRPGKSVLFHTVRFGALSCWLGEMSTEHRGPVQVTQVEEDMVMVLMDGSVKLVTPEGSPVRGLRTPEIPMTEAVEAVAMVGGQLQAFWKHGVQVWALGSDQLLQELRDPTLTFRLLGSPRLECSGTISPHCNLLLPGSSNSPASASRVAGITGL

With `CC(C)n1cnc2cc(-c3ccc4c(c3)N([C@H]3C[C@@H](N5CCCCC5)C3)C(=O)C43CCN(C(=O)C4(C)CCN(C(=O)C5CCN(c6ccc(C7CCC(=O)NC7=O)cn6)CC5)CC4)CC3)nc(NC3CC3)c21` (mixture of isomers) [Example 113, (3RS)-3-(6-{4-[4-({6-[4-(cyclopropylamino)-3-(propan-2-yl)-3H-imidazo[4,5-c]pyridin-6-yl]-2-oxo-1-[(1S,3S)-3-(piperidin-1-yl)cyclobutyl]-1,2-dihydrospiro[indole-3,4′-piperidin]-1′-yl}carbonyl)-4-methylpiperidine-1-carbonyl]piperidin-1-yl}pyridin-3-yl)piperidine-2,6-dione], the 50% degradation concentration (DC50) is below 100 nM and the Dmax lay within 70 to 85%.

For the compound `CC(C)n1cnc2cc(-c3ccc4c(c3)N([C@H]3C[C@@H](N5CCCCC5)C3)C(=O)C43CCN(C(=O)C4(C)CCN(C(=O)C5CCN(c6ccc(C7CCC(=O)NC7=O)cn6)CC5)CC4)CC3)nc(Nc3ccccc3F)c21` (mixture of isomers) [Example 114, (3RS)-3-[6-(4-{4-[(6-{4-[(2-fluorophenyl)amino]-3-(propan-2-yl)-3H-imidazo[4,5-c]pyridin-6-yl}-2-oxo-1-[(1S,3S)-3-(piperidin-1-yl)cyclobutyl]-1,2-dihydrospiro[indole-3,4′-piperidin]-1′-yl)carbonyl]-4-methylpiperidine-1-carbonyl}piperidin-1-yl)pyridin-3-yl]piperidine-2,6-dione], the DC50 is below 100 nM and the greatest degradation seen (Dmax) is 70 to 85%.

Consider `CC(C)n1cnc2cc(-c3ccc4c(c3)N([C@H]3C[C@@H](N5CCCCC5)C3)C(=O)C43CCN(C(=O)C4(C)CCN(C(=O)C5CCN(c6ccc(C7CCC(=O)NC7=O)nc6)CC5)CC4)CC3)nc(NC3CC3)c21` (mixture of isomers) [Example 118, (3RS)-3-(5-{4-[4-({6-[4-(cyclopropylamino)-3-(propan-2-yl)-3H-imidazo[4,5-c]pyridin-6-yl]-2-oxo-1-[(1S,3S)-3-(piperidin-1-yl)cyclobutyl]-1,2-dihydrospiro[indole-3,4′-piperidin]-1′-yl}carbonyl)-4-methylpiperidine-1-carbonyl]piperidin-1-yl}pyridin-2-yl)piperidine-2,6-dione], for which the 50% degradation concentration (DC50) is below 100 nM and the greatest degradation seen (Dmax) lay in the range of 50 to 70%.

Regarding `CC(C)n1cnc2cc(-c3ccc4c(c3)N([C@H]3C[C@@H](N5CCCCC5)C3)C(=O)C43CCN(C(=O)C4(C)CCN(C(=O)C5CCN(c6ccc(C7CCC(=O)NC7=O)nc6)CC5)CC4)CC3)nc(Nc3ccccc3F)c21` (mixture of isomers) [Example 119, (3RS)-3-[5-(4-{4-[(6-{4-[(2-fluorophenyl)amino]-3-(propan-2-yl)-3H-imidazo[4,5-c]pyridin-6-yl}-2-oxo-1-[(1S,3S)-3-(piperidin-1-yl)cyclobutyl]-1,2-dihydrospiro[indole-3,4′-piperidin]-1′-yl)carbonyl]-4-methylpiperidine-1-carbonyl}piperidin-1-yl)pyridin-2-yl]piperidine-2,6-dione], the DC50 is below 100 nM and the maximal degradation (Dmax) lay within 70 to 85%.

Regarding `CC(C)n1cnc2cc(-c3ccc4c(c3)N([C@H]3C[C@@H](N5CCCCC5)C3)C(=O)C43CCN(C(=O)C4(C)CCN(C(=O)C5CCN(c6ccc(C7CCC(=O)NC7=O)nc6)CC5)CC4)CC3)nc(Nc3ccncc3F)c21` (mixture of isomers) [Example 120, (3RS)-3-[5-(4-{4-[(6-{4-[(3-fluoropyridin-4-yl)amino]-3-(propan-2-yl)-3H-imidazo[4,5-c]pyridin-6-yl}-2-oxo-1-[(1S,3S)-3-(piperidin-1-yl)cyclobutyl]-1,2-dihydrospiro[indole-3,4′-piperidin]-1′-yl)carbonyl]-4-methylpiperidine-1-carbonyl}piperidin-1-yl)pyridin-2-yl]piperidine-2,6-dione], the half-maximal degradation concentration (DC50) was below 100 nM and the Dmax lay in the range of 70 to 85%.

Consider `CC(C)n1cnc2cc(-c3ccc4c(c3)N([C@H]3C[C@@H](N5CCCCC5)C3)C(=O)C43CCN(C(=O)C4(C)CCN(C(=O)CN5CCN(c6ccc(C7CCC(=O)NC7=O)cn6)CC5)CC4)CC3)nc(NC3CC3)c21` (mixture of isomers) [Example 123, (3RS)-3-[6-(4-{2-[4-({6-[4-(cyclopropylamino)-3-(propan-2-yl)-3H-imidazo[4,5-c]pyridin-6-yl]-2-oxo-1-[(1S,3S)-3-(piperidin-1-yl)cyclobutyl]-1,2-dihydrospiro[indole-3,4′-piperidin]-1′-yl}carbonyl)-4-methylpiperidin-1-yl]-2-oxoethyl}piperazin-1-yl)pyridin-3-yl]piperidine-2,6-dione], for which the DC50 was below 100 nM and the greatest degradation seen (Dmax) is 50 to 70%.

As to `Cc1cc(C(=O)N2CCN(c3ccc4c(c3)C(=O)N(C3CCC(=O)NC3=O)C4=O)CC2)ccc1C(=O)N1CCC2(CC1)C(=O)N([C@H]1C[C@@H](N3CCCCC3)C1)c1cc(-c3cc4ncn(C(C)C)c4c(Nc4ccccc4F)n3)ccc12` (mixture of isomers) [Example 124, 2-[(3RS)-2,6-dioxopiperidin-3-yl]-5-(4-{4-[(6-{4-[(2-fluorophenyl)amino]-3-(propan-2-yl)-3H-imidazo[4,5-c]pyridin-6-yl}-2-oxo-1-[(1S,3S)-3-(piperidin-1-yl)cyclobutyl]-1,2-dihydrospiro[indole-3,4′-piperidin]-1′-yl)carbonyl]-3-methylbenzoyl}piperazin-1-yl)-2,3-dihydro-1H-isoindole-1,3-dione], the half-maximal degradation concentration (DC50) lay in the range of 100 to 500 nM and the Dmax fell in the range of 70 to 85%.

With `Cc1cc(C(=O)N2CCC3(CC2)C(=O)N([C@H]2C[C@@H](N4CCCCC4)C2)c2cc(-c4cc5ncn(C(C)C)c5c(Nc5ccccc5F)n4)ccc23)ccc1C(=O)N1CCN(c2ccc3c(c2)C(=O)N(C2CCC(=O)NC2=O)C3=O)CC1` (mixture of isomers) [Example 125, 2-[(3RS)-2,6-dioxopiperidin-3-yl]-5-(4-{4-[(6-{4-[(2-fluorophenyl)amino]-3-(propan-2-yl)-3H-imidazo[4,5-c]pyridin-6-yl}-2-oxo-1-[(1S,3S)-3-(piperidin-1-yl)cyclobutyl]-1,2-dihydrospiro[indole-3,4′-piperidin]-1′-yl)carbonyl]-2-methylbenzoyl}piperazin-1-yl)-2,3-dihydro-1H-isoindole-1,3-dione], the DC50 lay within 500 to 1000 nM and the maximal degradation (Dmax) is 50 to 70%.

Regarding `CC(C)n1cnc2cc(-c3ccc4c(c3)N([C@H]3C[C@@H](N5CCCCC5)C3)C(=O)C43CCN(C(=O)[C@@H]4CCN(C(=O)[C@H]5CC[C@H](N(C)c6ccc(C7CCC(=O)NC7=O)cn6)CC5)C4)CC3)nc(NC3CC3)c21` (mixture of isomers) [Example 126, (3RS)-3-(6-{methyl[(1R,4R)-4-[(3R)-3-({6-[4-(cyclopropylamino)-3-(propan-2-yl)-3H-imidazo[4,5-c]pyridin-6-yl]-2-oxo-1-[(1S,3S)-3-(piperidin-1-yl)cyclobutyl]-1,2-dihydrospiro[indole-3,4′-piperidin]-1′-yl}carbonyl)pyrrolidine-1-carbonyl]cyclohexyl]amino}pyridin-3-yl)piperidine-2,6-dione], the DC50 is below 100 nM and the greatest degradation seen (Dmax) was above 85%.

In the case of `CC(C)n1cnc2cc(-c3ccc4c(c3)N([C@H]3C[C@@H](N5CCCCC5)C3)C(=O)C43CCN(C(=O)[C@@H]4CCN(C(=O)[C@H]5CC[C@H](N(C)c6ccc(C7CCC(=O)NC7=O)cn6)CC5)C4)CC3)nc(Nc3ccccc3F)c21` (mixture of isomers) [Example 127, (3RS)-3-(6-{METHYL [(1R,4R)-4-[(3R)-3-[(6-{4-[(2-fluorophenyl)amino]-3-(propan-2-yl)-3H-imidazo[4,5-c]pyridin-6-yl}-2-oxo-1-[(1S,3S)-3-(piperidin-1-yl)cyclobutyl]-1,2-dihydrospiro[indole-3,4′-piperidin]-1′-yl)carbonyl]pyrrolidine-1-carbonyl]cyclohexyl]amino}pyridin-3-yl)piperidine-2,6-dione], the DC50 was below 100 nM and the Dmax was above 85%.

As to `CC(C)n1cnc2cc(-c3ccc4c(c3)N([C@H]3C[C@@H](N5CCCCC5)C3)C(=O)C43CCN(C(=O)[C@@H]4CCN(C(=O)[C@H]5CC[C@H](N(C)c6ccc(C7CCC(=O)NC7=O)cn6)CC5)C4)CC3)nc(Nc3ccncc3F)c21` (mixture of isomers) [Example 128, (3RS)-3-(6-{methyl[(1R,4R)-4-[(3R)-3-[(6-{4-[(3-Fluoropyridin-4-yl)amino]-3-(propan-2-yl)-3H-imidazo[4,5-c]pyridin-6-yl}-2-oxo-1-[(1S,3S)-3-(piperidin-1-yl)cyclobutyl]-1,2-dihydrospiro[indole-3,4′-piperidin]-1′-yl)carbonyl]pyrrolidine-1-carbonyl]cyclohexyl]amino}pyridin-3-yl)piperidine-2,6-dione], the DC50 is below 100 nM and the greatest degradation seen (Dmax) was above 85%.

On to `CC(C)n1cnc2cc(-c3ccc4c(c3)N([C@H]3C[C@@H](N5CCCCC5)C3)C(=O)C43CCN(C(=O)[C@@H]4CCN(C(=O)[C@H]5CC[C@H](N(C)c6cccc7c6C(=O)N(C6CCC(=O)NC6=O)C7=O)CC5)C4)CC3)nc(NC3CC3)c21` (mixture of isomers) [Example 129, 2-[(3RS)-2,6-dioxopiperidin-3-yl]-4-{methyl[(1R,4R)-4-[(3R)-3-({6-[4-(cyclopropylamino)-3-(propan-2-yl)-3H-imidazo[4,5-c]pyridin-6-yl]-2-oxo-1-[(1S,3S)-3-(piperidin-1-yl)cyclobutyl]-1,2-dihydrospiro[indole-3,4′-piperidin]-1′-yl}carbonyl)pyrrolidine-1-carbonyl]cyclohexyl]amino}-2,3-dihydro-1H-isoindole-1,3-dione], for which the half-maximal degradation concentration (DC50) lay in the range of 100 to 500 nM and the Dmax lay within 70 to 85%.
